Data on 6 compounds can be found in ChEMBL document CHEMBL5257140, “Novel Imidazotriazine Derivatives as IL-17 Modulators for Treating Inflammatory and Autoimmune Disorders” (ACS Med Chem Lett, 2023).

This assay is described as follows: Inhibition of IL-6 release in IL-17A/TNFalpha-stimulated HDF cells preincubated with IL-17A and TNFalpha for 5 hrs followed by […] to assay plate and measured after 18 to 20 hrs by europium cryptate and Alexa 665 reagent based FRET assay. Conditions: Homo sapiens, NHDF. The format is functional, cell-based.
As usually defined, the IC50 is the concentration that inhibits the measured activity by half. Read a high IC50 as weaker potency. `Cc1nonc1C(=O)N[C@H](c1cn2ncc([C@H]3C[C@](C)(O)CCN3C(=O)[C@@H]3CCC(F)(F)CO3)nc2n1)C1CCC(F)(F)CC1` gave an IC50 of 5.01 nM.
With `Cc1nonc1C(=O)N[C@H](c1cn2ncc([C@@H]3C[C@](C)(O)CCN3C(=O)[C@@H]3CCC(F)(F)CO3)nc2n1)C1CCC(F)(F)CC1` the figure was 3.98 nM; with `Cc1nonc1C(=O)N[C@H](c1cn2ncc([C@H]3C[C@H](O)CCN3C(=O)[C@@H]3CCC(F)(F)CO3)nc2n1)C1CCC(F)(F)CC1`, 3.98 nM; with `Cc1nonc1C(=O)N[C@H](c1cn2ncc([C@@H]3C[C@@](O)(C(F)(F)F)CCN3C(=O)[C@@H]3CCC(F)(F)CO3)nc2n1)C1CCC(F)(F)CC1`, 2.51 nM.
With `Cc1nonc1C(=O)N[C@H](c1cn2ncc([C@@H]3COCCN3C(=O)[C@@H]3CCC(F)(F)CO3)nc2n1)C1CCC(F)(F)CC1` the figure was 6.31 nM.
Consider `Cc1nonc1C(=O)N[C@H](c1cn2ncc([C@@H]3COCCN3C(=O)C3CCC(F)(F)CO3)nc2n1)C(C1CC1)C1CC1` (stereo partly specified), for which the IC50 is 3.98 nM.
